Where “and” joins values, the source holds several entries; their conditions need not be identical. Equal values may be shown once.
Tests used:
[1] = target: T1, GCS-HD-GYP (V. fluvialis) (Vibrio fluvialis, UniProt A0AAX2LUU7); test: HPLC hydrolysis assay, […] nm; type: biochemical; settings: 1 mM MnCl2, pH 8.0, 20 °C
T1 construct: gene AL536_01530; full length, C-terminal His6 tag kept, pET-21a (codon-optimized), E. coli BL21(DE3), heme-reconstituted in crude extract; mainly dimer (85 kDa by SEC)

[2] = target: T2, V. furnissii GCS-HD-GYP (Vibrio furnissii, UniProt A0A0Q2RS25); test: HPLC hydrolysis assay, […] nm; type: biochemical; settings: 1 mM MnCl2, pH 8.0, 20 °C; Fe(III) heme form; optimal conditions of V. fluvialis enzyme
T2 construct: gene AMR76_07425; full length, C-terminal His6 tag kept, pET-21a (codon-optimized), E. coli host; dimer

[3] = target: the molecule itself; test: SEC; Superdex 200 Increase 10/300 GL, 50 mM Tris-HCl pH 8.0, 100 mM NaCl; 100 uL of 20 uM protein injected; mass estimated from standard proteins

Nc1nc2c(ncn2[C@@H]2O[C@@H]3COP(=O)(O)O[C@H]4[C@@H](O)[C@H](n5cnc6c(=O)[nH]c(N)nc65)O[C@@H]4COP(=O)(O)O[C@H]3[C@H]2O)c(=O)[nH]1 [c-di-GMP]
HPLC hydrolysis assay, 254 nm ([1]; 0.1 mM c-di-GMP, Fe(III) or Fe(II)-O2 heme form): The Fe(III) and Fe(II)-O2 complexes of GCS-HD-GYP catalyzed the hydrolysis of c-di-GMP to form pGpG | HPLC hydrolysis assay, 254 nm [2]: the specific activity for the PDE activity of the Fe(III) complex of V. furnissii GCS-HD-GYP

Nc1nc2c(ncn2[C@@H]2O[C@H](COP(=O)(O)O[C@H]3[C@@H](O)[C@H](n4cnc5c(=O)[nH]c(N)nc54)O[C@@H]3COP(=O)(O)O)[C@@H](O)[C@H]2O)c(=O)[nH]1 [pGpG]
HPLC hydrolysis assay, 254 nm ([1]; product of c-di-GMP hydrolysis, Fe(III) heme form): conversion of c-di-GMP to a new compound, namely its linearized product pGpG

B1: Vibrio fluvialis GCS-HD-GYP (globin-coupled sensor phosphodiesterase containing an HD-GYP domain) (enzyme, UniProt A0AAX2LUU7 1-375, looked up)
chain: METAFSSEPESVIRRWASYLVIDQQTLNTLREFYWVMEQNIDDILSHVYAHLSSNRETAHFYQDEQSVKRAKAHQREHMMRYVFRGNFGAEYYNATNRIGKTHHKLGIDFKIYSGAYCIVLSQLAGVVYKVLAPEIGNVQRYMTALNRVIFMDMGLATSVYYDTACLELEELAHELNFALAKAGEFRDNETGEHIKRISRMSFELAKAAGQEPHWCKMIQIASPLHDVGKIGVPDDILLKPGKLDEQEWNVMQQHPAMGGVIIPDNKSELIRMARRISLTHHEKWDGSGYPAGLKGEEIPLEGRIVAICDVFDALLSTRPYKRPWSMEEVGTYLRDNRGKHFDPQLLDIFIENLANMQLIRCQFEDAVSPEIVAD
notes: GCS-HD-GYP of Vibrio fluvialis, gene AL536_01530, UniProtKB A0A120L350; full-length protein, predicted mass 44.1 kDa with the C-terminal His6 tag; globin domain residues 1-166, HD-GYP domain residues 169-366; Synthetic, codon-optimised gene in pET-21a (NdeI/XhoI); Mostly a dimer, with a minor tetramer peak by SEC; also called V. fluvialis GCS-HD-GYP; AL536_01530; source: E. coli BL21(DE3), …
stoichiometry N [3]: 2 and 4

B2: Vibrio furnissii GCS-HD-GYP (enzyme, UniProt A0A0Q2RS25 1-375, looked up)
chain: MEVAFGSDPGNAIRRWASYLAIDQQTVDALREYYWIMERNIDEVLAFVYDHLSSCPETAQFYQNEQSIVRARGHLRDHLMLYVFRGHFGVDYYNATIRIGQTHQRLGIDFKVYSGAYCIVMSQLARVVYQSLAPNIDNIHRYMSALNRAIFLDLGLATAVYYDTACFELEELAYELNFALAKAGEFRDNETGEHIKRISRMSFELAKALGQPAHWCKMIQIASPLHDVGKIGVPDEILLKPGKLDADEWKLMQQHPAIGGDIIPDNKSELIRMARRISLTHHEKWDGSGYPAGLAGEEIPLEGRIVAICDVFDALLSTRPYKRAWSVAEVVAYLRENRAKHFDPLLLDCFLEHLDSMLHIRHQFEDAAQPETVAD
notes: GCS-HD-GYP of Vibrio furnissii, gene AMR76_07425, UniProtKB A0A0Q2RS25; molecular mass 43.9 kDa with the C-terminal His6 tag; The synthetic, codon-optimised gene was put into pET-21a (NdeI/XhoI); also called V. furnissii GCS-HD-GYP; AMR76_07425; source: E. coli, purified; not shown: His6, C-terminal, kept
stoichiometry N [3]: 2

— PMC10882959, “Gas-Selective Catalytic Regulation by a Newly Identified Globin-Coupled Sensor Phosphodiesterase Containing an HD-GYP Domain from the Human Pathogen Vibrio fluvialis” (Biochemistry, 2024)
